Where two headings read alike, the source gives them in different places.
What was measured:
[1] = test system: acetylcholine levels in ventral hippocampus; settings: donepezil 1 mg/kg ip and vehicle; compared to vehicle+vehicle
Excerpt: Adult, male, Wistar rats were used for the experiments. The rats were anesthetized before surgery. Each animal was placed in a stereotaxic frame (Kopf Instruments, USA) and an incision was made on the top of the skull. A microdialysis probe with a 4 mm^2 exposed surface (polyacrylnitril membrane, Brainlink, the Netherlands) was implanted into the ventral hippocampus. […] The probes were attached to the skull with stainless steel screws and dental cement. Experiments started after one day of recovery.
Vortioxetine HBr was prepared in 10% 2-hydroxypropyl-β-cyclodextrin at 0, 5 or 10 mg/ml.
After two hours of prestabilisation, samples (30 μl) were collected and stored in 20 mM formic acid and 0.04% ascorbic acid (10 μl).
The concentration of acetylcholine in the samples was determined by HLPC fitted with tandem mass spectroscopy (MS/MS) for detection using acetyl-β-methyl-choline as internal standard. Chromatographic separation was performed on a reversed phase Phenomenex Synergi Max-RP column (2.0×150 mm, particle size 4 μm) at 50° C. Components were separated using an isocratic flow of eluent A (20 mM ammonium acetate, 5% acetonitril and 0.3% trifluoroacetic acid) at a flow rate of 0.25 ml/min. […]
The average of three pre-administration samples was set to 100%. […] All post-administration samples were expressed as a percentage of basal level within the same subject. […]

[2] = type: in vivo; settings: rat
Excerpt: In addition, blood samples were taken from each animal to measure the plasma level of the active ingredients.

[3] = test system: rats with scopolamine-induced memory impairment; experiment: Novel object recognition task (NOR) in rats with scopolamine-induced memory impairment (Example 5); type: in vivo, rat
Procedure: In a habituation phase, rats are allowed to explore the test room environment and two objects which differ in shape, colour and texture. In the test phase, one of the objects is exchanged so that the rats are exposed to one novel object and one familiar object. The time spent exploring the novel and the familiar object is recorded following the administration of test compounds.
Sprague-Dawley rats were used
One day 1 and day 2 of the experiment the rats received two habituation sessions to the test room environment including two objects (familiar objects). Each session lasted 6 minutes. […] At the test day, five groups of rats received a third habituation test (familiarization trial) after which they were removed from the test apparatus and one of the objects was replaced with a novel object. Four hours later, the rats were put back in the test apparatus (test phase) and the time used exploring of the familiar and the novel object was recorded.
The numbers in parenthesis indicate the number of rats in each group

[4] = plasma; cited from earlier work
5-HT1B-receptor = molecular target: T1, 5-HT1B-receptor (Rattus norvegicus, UniProt P28564); settings: rats; vortioxetine dosed at 5-10 mg/kg; cited from earlier work
T1 construct: The receptor occupancy in rats following administration of vortioxetine has been investigated; host or cells: rat, in vivo / ex vivo occupancy

[5] = test system: patients with major depressive disorder (MDD); settings: cited from earlier work
5-HT3-receptor = molecular target: T2, 5-HT3-receptor (Rattus norvegicus, UniProt P35563); settings: rats; vortioxetine dosed at 5-10 mg/kg; cited from earlier work
T2 construct: The receptor occupancy in rats following administration of vortioxetine has been investigated; host or cells: rat, in vivo / ex vivo occupancy
T2 sequence (P35563 24-483): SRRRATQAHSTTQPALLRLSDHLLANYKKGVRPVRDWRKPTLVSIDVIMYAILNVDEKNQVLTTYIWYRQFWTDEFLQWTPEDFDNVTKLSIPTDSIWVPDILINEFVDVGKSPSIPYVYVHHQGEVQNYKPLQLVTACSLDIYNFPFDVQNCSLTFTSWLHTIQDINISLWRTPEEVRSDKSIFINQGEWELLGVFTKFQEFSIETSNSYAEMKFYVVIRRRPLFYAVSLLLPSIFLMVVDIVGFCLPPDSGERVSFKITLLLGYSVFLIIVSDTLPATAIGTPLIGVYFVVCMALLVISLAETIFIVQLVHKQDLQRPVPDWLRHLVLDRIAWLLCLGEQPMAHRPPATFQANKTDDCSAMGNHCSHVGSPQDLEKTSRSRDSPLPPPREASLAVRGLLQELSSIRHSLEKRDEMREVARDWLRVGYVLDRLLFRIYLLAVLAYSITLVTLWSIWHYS

[6] = test system: acetylcholine levels in hippocampus; experiment: Microdialysis: acetylcholine levels in ventral hippocampus of freely moving Sprague Dawley rats (Examples 3 and 4); type: in vivo, rat
Excerpt: Adult, male Sprague Dawley rats were used in the experiments. The rats were anesthetized before surgery. The animals were placed in a stereotaxic frame (Kopf instruments, USA), and CMA12 guide cannulas (CMA Microdialysis, Sweden) were implanted aiming into the ventral hippocampus. Coordinates for the tips of the probes were AP=−5.3 mm to bregma, lateral (ML)=−4.8 mm to midline and ventral=−8.0 mm to dura (Paxinos and Watson).
Galanthamine, the chemical name of which is (4aS,6R,8aS)-4a,5,9,10,11,12-hexahydro-3-methoxy-11-methyl-6H-benzofuro[3a,3,2-ef][2]benzazepin-6-ol, was administered as the HBr salt. Vortioxetine was administered as the HBr salt. Vortioxetine and galantamine were prepared in 0.9% saline. Vortioxetine was administered subcutaneously at 10 mg/kg and galantamine was administered subcutaneously at 0.3 mg/kg and 1.0 mg/kg.
The day before the experiment, a microdialysis probe (CMA/12, 4 mm, PAES, MWKO 100 kDa) was inserted into the respective guide cannula in the awake rats. […] At the day of the experiment, samples were collected in 30 min intervals prior to administration to define the baseline. The data is presented as percentage of baseline within the same animal. Significance is defined as p<0.05. Animals received treatments according to experimental protocol and samples were collected at 30 minutes intervals.
The concentration of acetylcholine in the samples was determined using a Waters Acquity HPLC system equipped with a Sunshell RP-Aqua 2.1×100 mm, 2.6 um particle column fitted with a Waters Quattro Premier XE triple quadrupole mass spectrometer operating in the MS/MS mode. Components were separated using an isocratic flow of eluent A (100 mM ammonium acetate in milliQ water).
Injection of galantamine was 60 minutes prior to the injection of vortioxetine.

serotonin transporter [7] = molecular target: T3, serotonin transporter (Rattus norvegicus, UniProt P31652); settings: rats; vortioxetine dosed at 5-10 mg/kg; cited from earlier work
T3 construct: The receptor occupancy in rats following administration of vortioxetine has been investigated; host or cells: rat, in vivo / ex vivo occupancy

[8] = test system: patients suffering from MDD; settings: long-term study; cited from earlier work
serotonin transporter [9] = molecular target: T4, serotonin transporter (Homo sapiens, UniProt P31645); settings: humans, cited from earlier work
T4 construct: The serotonin transporter occupancy in humans was investigated; host or cells: human subjects, in vivo
T4 sequence (P31645 whole entry): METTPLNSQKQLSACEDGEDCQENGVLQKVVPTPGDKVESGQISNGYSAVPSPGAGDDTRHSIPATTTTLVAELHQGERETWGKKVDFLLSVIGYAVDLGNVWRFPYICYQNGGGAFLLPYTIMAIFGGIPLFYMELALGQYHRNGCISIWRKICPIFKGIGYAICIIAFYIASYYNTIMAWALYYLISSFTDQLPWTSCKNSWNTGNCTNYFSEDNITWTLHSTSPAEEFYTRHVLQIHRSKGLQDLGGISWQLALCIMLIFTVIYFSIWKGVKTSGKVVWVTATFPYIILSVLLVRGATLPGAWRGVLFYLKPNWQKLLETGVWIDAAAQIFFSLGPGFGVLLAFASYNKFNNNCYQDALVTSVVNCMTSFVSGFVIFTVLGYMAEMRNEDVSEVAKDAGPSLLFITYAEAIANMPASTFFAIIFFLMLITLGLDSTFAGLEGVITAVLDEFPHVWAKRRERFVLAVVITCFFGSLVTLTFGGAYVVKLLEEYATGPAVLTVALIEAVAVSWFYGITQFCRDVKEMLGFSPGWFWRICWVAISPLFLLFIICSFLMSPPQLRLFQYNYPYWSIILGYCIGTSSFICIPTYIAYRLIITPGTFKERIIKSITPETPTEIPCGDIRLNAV

T1 sequence (P28564 whole entry): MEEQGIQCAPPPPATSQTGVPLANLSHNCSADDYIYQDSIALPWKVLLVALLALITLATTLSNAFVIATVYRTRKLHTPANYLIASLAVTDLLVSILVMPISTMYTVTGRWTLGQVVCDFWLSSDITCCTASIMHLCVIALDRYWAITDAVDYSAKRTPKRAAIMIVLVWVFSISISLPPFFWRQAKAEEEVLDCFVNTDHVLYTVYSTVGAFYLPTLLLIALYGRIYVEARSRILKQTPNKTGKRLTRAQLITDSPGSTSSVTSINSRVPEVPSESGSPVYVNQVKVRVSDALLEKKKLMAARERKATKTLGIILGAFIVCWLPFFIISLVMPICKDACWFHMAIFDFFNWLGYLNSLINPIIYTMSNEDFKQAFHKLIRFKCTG
T3 sequence (P31652 whole entry): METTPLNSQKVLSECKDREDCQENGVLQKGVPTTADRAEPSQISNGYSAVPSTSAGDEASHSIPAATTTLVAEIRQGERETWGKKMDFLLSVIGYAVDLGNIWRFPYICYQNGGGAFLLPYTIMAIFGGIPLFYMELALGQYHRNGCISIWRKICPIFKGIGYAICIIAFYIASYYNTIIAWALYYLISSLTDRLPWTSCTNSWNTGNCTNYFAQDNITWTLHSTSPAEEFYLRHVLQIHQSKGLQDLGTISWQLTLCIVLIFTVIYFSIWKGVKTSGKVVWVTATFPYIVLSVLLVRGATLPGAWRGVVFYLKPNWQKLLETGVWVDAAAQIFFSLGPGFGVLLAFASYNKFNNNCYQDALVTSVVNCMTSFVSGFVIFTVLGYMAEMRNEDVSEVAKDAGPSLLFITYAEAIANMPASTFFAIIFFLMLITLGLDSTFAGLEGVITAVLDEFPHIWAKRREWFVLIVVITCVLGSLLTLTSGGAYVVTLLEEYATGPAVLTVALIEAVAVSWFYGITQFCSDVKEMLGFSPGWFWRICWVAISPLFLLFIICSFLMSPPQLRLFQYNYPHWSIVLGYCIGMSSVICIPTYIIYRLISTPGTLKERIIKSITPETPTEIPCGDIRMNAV

COc1cc2c(cc1OC)C(=O)C(CC1CCN(Cc3ccccc3)CC1)C2 (stereo not drawn) [Donepezil]
acetylcholine levels in ventral hippocampus [1]: significantly increased

Cc1ccc(Sc2ccccc2N2CCNCC2)c(C)c1 [Vortioxetine, 1-[2-(2,4-dimethyl-phenylsulfanyl)-phenyl]-piperazine]
Vortioxetine in plasma ([2]; vortioxetine 10 mg/kg sc + donepezil 0.3 mg/kg ip): 317 ng/mL
Vortioxetine in plasma ([2]; vortioxetine 10 mg/kg sc + donepezil 1 mg/kg ip): 317 ng/mL
reversal of scopolamine-induced memory impairment (recognition index, RI) ([3]; scopolamine 0.5 mg/kg + vortioxetine 5 mg/kg ip 20 minutes prior to familiarization trial): neither vortioxetine at 5 mg/kg nor donepezil at 0.5 mg/kg is able to reverse this impairment
half-life in humans [4]: approximately 57 hours
occupancy at 5-HT1B-receptor (5-HT1B-receptor): almost full occupancy
changes in clinical laboratory results, vital signs, weight, or ECG parameters ([5]; human, in vivo): no clinically relevant changes
treatment of depressive and anxious symptoms versus placebo ([5]; patients with MDD, six weeks): separates significantly from placebo
occupancy at 5-HT3-receptor (5-HT3-receptor): almost full occupancy
acetylcholine levels in hippocampus ([6]; vortioxetine 10 mg/kg sc): significant increase
occupancy at serotonin transporter (serotonin transporter [7]): almost full occupancy
prevention of relapse [8]: effective in preventing relapse
serotonin transporter occupancy (serotonin transporter [9]; 5 mg/day): 51%
serotonin transporter occupancy (serotonin transporter [9]; 10 mg/day): 63%
serotonin transporter occupancy (serotonin transporter [9]; 20 mg/day): 90%

COc1ccc2c3c1O[C@H]1C[C@@H](O)C=C[C@@]31CCN(C)C2 [galantamine, (4aS,6R,8aS)-4a,5,9,10,11,12-hexahydro-3-methoxy-11-methyl-6H-benzofuro[3a,3,2-ef][2]benzazepin-6-ol]
acetylcholine levels in hippocampus ([6]; galantamine 0.3 and 1.0 mg/kg sc and vehicle): dose dependent, significant increase

CCN(C)C(=O)Oc1cccc([C@H](C)N(C)C)c1 [rivastigmine, (S)—N-ethyl-N-methyl-3-[1-(dimethylamino)ethyl]-phenyl carbamate]
acetylcholine levels in hippocampus ([6]; rivastigmine 0.2 and 0.6 mg/kg sc and vehicle): dose-dependently and significantly increases

CN1[C@@H]2C[C@@H](OC(=O)[C@H](CO)c3ccccc3)C[C@H]1[C@@H]1O[C@@H]12 [scopolamine]
effect on short-term memory (recognition index, RI) ([3]; scopolamine 0.5 mg/kg ip 40 minutes prior to familiarization trial, versus saline, p<0.001): impairs short-term memory
